The text below walks through data of patent US9187497B2, “Substituted pyrido[3,2-e]pyrrolo[1,2-a]pyrazines as inhibitors of poly(ADP-ribose)polymerase (PARP)” (Takeda Phamaceutical Company Limited, priority 2009, dated 2015).

One assay addresses T1, PARP (Homo sapiens, UniProt P09874).
T1 construct: purchased Trevigen 4684-096-01 (enzyme); kit 4684-096-K HT
Description: PARP ELISA colorimetric assay of inhibition of PARP catalytic activity (IC50). Format: biochemical. The following applies: pIC50=-log(IC50), IC50 in molar concentration; ELISA-based PARP kit, 10 minutes of catalysis. On the procedure: Inhibition Constant (IC50) from PARP ELISA
Inhibition of PARP catalytic activity was determined by use of an ELISA-based colorimetric PARP/Apoptosis Assay kit (part number 4684-096-K HT, Trevigen). To each histone coated well in the 96-well plate supplied by the manufacturer (part number 4677-096-P) is added 39 μl of PARP buffer (part number 4671-096-02) and 1 μl of test compound dissolved in DMSO (diluted serially 3-fold 11 times). After mixing, 5 μl of 0.1 nM PARP (part number 4684-096-01) is added and the solution allowed to stand at ambient temperature for 10 minutes. PARP catalysis is initiated with the addition of 5 μl of 100 μM β-nicotinamide adenine dinucleotide (NAD+) (part number 4684-096-02) with activated DNA (part number 4671-096-06). After 10 minutes of catalysis the reaction is quenched by solvent aspiration followed by irrigation of the assay wells 4 times with phosphate buffered saline (PBS) containing 0.1% t-Octylphenoxypolyethoxyethanol (Triton® X-100). Mouse Anti-poly ADP ribose (PAR) monoclonal antibody, goat antimouse immunoglobulin G (IgG)-horse radish peroxidase (HRP) conjugate and HRP substrate are added according to the manufacture's specifications to generate a colorimetric signal proportional to PARP catalytic activity. An IC50 for the test compound is calculated from the equation Absorbance=(Amax−background)/(1+([cmpd]/IC50)^n)+background fit to the 12 point test compound concentration gradient via nonlinear least squares.

A further assay deals with Jurkat cell line. Nature of the assay: PARP cellular chemopotentiation assay (MTS cell viability with and without TMZ). The following applies: ratio of EC50 for inhibition of cell viability without and with 100 μM TMZ; Jurkat cells, 96 hours of treatment. It is filed as cell-based. On the procedure:
Potentiation Factor (PF50) Determination from PARP Cellular Chemopotentiation Assay
Jurkat cell line was maintained according to the supplier (American Type Culture Collection (Rockville, Md.)). Cells were seeded in 96-well tissue culture microplates at 10,000 cells per well and cultured for 24 hours prior to addition of compounds, TMZ (Temozolomide) or DMSO (dimethylsulfoxide) vehicle. After 96 hours of treatment, the conversion of MTS ([3-(4,5-dimethylthiazol-2-yl)-5-(3-carboxymethoxyphenyl)-2-(4-sulfophenyl)-2H-tetrazolium, inner salt], Promega, Madison, Wis.) by metabolically active cells was determined through measuring the OD490 nm with a Spectramax microplate reader (Molecular Devices, San Diego, Calif.). To generate concentration-response curves, cells were treated in duplicate with a range of serial compound dilutions (final DMSO concentration was 0.5%) in the absence or presence of 100 μM TMZ chemoreagent. The percentage of viable cells per well was calculated by correction for background and normalizing against DMSO-treated cells. EC50 values for inhibition of cell viability were calculated using XLfit4 MicroSoft Excel curve-fitting software. Chemopotentiation factor PF50 was calculated as the ratio of EC50 values of cells co-treated without and with TMZ, respectively.

T1 sequence (P09874 whole entry): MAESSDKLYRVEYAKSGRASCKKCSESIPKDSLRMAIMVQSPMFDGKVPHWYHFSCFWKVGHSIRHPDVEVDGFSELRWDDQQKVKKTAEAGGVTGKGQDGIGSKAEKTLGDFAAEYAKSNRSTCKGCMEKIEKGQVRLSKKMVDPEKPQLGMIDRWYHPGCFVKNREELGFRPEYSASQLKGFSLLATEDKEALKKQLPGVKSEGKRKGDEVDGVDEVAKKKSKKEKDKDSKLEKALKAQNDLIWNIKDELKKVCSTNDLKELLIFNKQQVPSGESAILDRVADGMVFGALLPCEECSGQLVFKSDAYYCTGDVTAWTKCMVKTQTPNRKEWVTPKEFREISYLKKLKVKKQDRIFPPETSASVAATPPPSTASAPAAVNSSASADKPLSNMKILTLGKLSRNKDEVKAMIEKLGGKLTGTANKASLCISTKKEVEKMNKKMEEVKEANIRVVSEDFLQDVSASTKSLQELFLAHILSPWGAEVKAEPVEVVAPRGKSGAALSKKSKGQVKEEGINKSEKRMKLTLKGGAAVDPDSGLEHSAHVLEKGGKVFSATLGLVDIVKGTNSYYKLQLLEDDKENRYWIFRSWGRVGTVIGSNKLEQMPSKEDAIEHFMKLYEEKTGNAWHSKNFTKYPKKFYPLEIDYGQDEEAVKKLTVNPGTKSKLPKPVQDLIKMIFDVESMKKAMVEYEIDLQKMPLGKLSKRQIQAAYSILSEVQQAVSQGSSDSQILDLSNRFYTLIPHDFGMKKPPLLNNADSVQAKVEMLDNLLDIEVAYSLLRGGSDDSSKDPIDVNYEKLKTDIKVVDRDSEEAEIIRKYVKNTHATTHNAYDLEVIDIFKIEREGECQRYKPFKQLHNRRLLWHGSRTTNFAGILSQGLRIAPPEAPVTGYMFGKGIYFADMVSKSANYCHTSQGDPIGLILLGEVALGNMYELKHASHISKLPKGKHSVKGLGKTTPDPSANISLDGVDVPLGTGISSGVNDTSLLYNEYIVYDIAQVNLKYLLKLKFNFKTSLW

On PARP, `CNC(=O)c1ccc(N2CCN(Cc3cnc4c(c3)NC(=O)[C@@H]3CCCN43)CC2)nc1` [Compound 6, (S)—N-methyl-6-(4-((6-oxo-5,6,6a,7,8,9-hexahydropyrido[3,2-e]pyrrolo[1,2-a]pyrazin-3-yl)methyl)piperazin-1-yl)nicotinamide] had an IC50 of no more than 12.6 nM. Also, in the assay on Jurkat cell line, the PF50 is greater than 10.
The compound `CNC(=O)c1ccc(N2CCN(Cc3cnc4c(c3)NC(=O)[C@@H]3CCCN43)CC2)cc1` [Compound 11, (S)—N-methyl-4-(4-((6-oxo-5,6,6a,7,8,9-hexahydropyrido[3,2-e]pyrrolo[1,2-a]pyrazin-3-yl)methyl)piperazin-1-yl)benzamide] had an IC50 against PARP of 15.8 to 39.8 nM. In the assay with Jurkat cell line, the PF50 was greater than 10.
Taken in the same sequence, the figures for `CC(C)NC(=O)c1ccc(N2CCN(Cc3cnc4c(c3)NC(=O)[C@@H]3CCCN43)CC2)cc1` [Compound 12, (S)—N-isopropyl-4-(4-((6-oxo-5,6,6a,7,8,9-hexahydropyrido[3,2-e]pyrrolo[1,2-a]pyrazin-3-yl)methyl)piperazin-1-yl)benzamide] were 15.8 to 39.8 nM and greater than 10.
The compound `O=C1Nc2cc(CN3CCN(c4ccc(F)cc4)CC3)cnc2N2CCC[C@@H]12` [Compound 24, (S)-3-((4-(4-fluorophenyl)piperazin-1-yl)methyl)-6a,7,8,9-tetrahydropyrido[3,2-e]pyrrolo[1,2-a]pyrazin-6(5H)-one] showed an IC50 against PARP of 15.8 to 39.8 nM. For the same compound, the PF50 in the assay on Jurkat cell line is recorded as greater than 5000.
As for `COc1cnccc1-c1ccc(N2CCN(Cc3cnc4c(c3)NC(=O)[C@@H]3CCCCN43)CC2)cc1` [Compound 153, (S)-3-((4-(4-(3-methoxypyridin-4-yl)phenyl)piperazin-1-yl)methyl)-7,8,9,10-tetrahydro-5H-dipyrido[1,2-a:3′,2′-e]pyrazin-6(6aH)-one], the IC50 on PARP is no less than 50.1 nM.
In the case of `Cc1ccccc1-c1ccc(N2CCN(Cc3cnc4c(c3)NC(=O)[C@@H]3CCCCN43)CC2)cc1` [Compound 154, (S)-3-((4-(2′-methylbiphenyl-4-yl)piperazin-1-yl)methyl)-7,8,9,10-tetrahydro-5H-dipyrido[1,2-a:3′,2′-e]pyrazin-6(6aH)-one], the IC50 against PARP was no less than 50.1 nM.
The same measure, in the same setting: the figure for `Cc1cnccc1-c1ccc(N2CCN(Cc3cnc4c(c3)NC(=O)[C@@H]3CCCCN43)CC2)cc1` [Compound 155, (S)-3-((4-(4-(3-methylpyridin-4-yl)phenyl)piperazin-1-yl)methyl)-7,8,9,10-tetrahydro-5H-dipyrido[1,2-a:3′,2′-e]pyrazin-6(6aH)-one] is no less than 50.1 nM; for `COc1cccc(-c2ccc(N3CCN(Cc4cnc5c(c4)NC(=O)[C@@H]4CCCCN54)CC3)cc2)n1` [Compound 156, (S)-3-((4-(4-(6-methoxypyridin-2-yl)phenyl)piperazin-1-yl)methyl)-7,8,9,10-tetrahydro-5H-dipyrido[1,2-a:3′,2′-e]pyrazin-6(6aH)-one] it is no less than 50.1 nM.
The same measure, in the same setting: with `O=C1Nc2cc(CN3CCN(c4ccc(-c5ccccn5)cc4)CC3)cnc2N2CCCC[C@@H]12` [Compound 157, (S)-3-((4-(4-(pyridin-2-yl)phenyl)piperazin-1-yl)methyl)-7,8,9,10-tetrahydro-5H-dipyrido[1,2-a:3′,2′-e]pyrazin-6(6aH)-one] the figure was no less than 50.1 nM; with `O=C1Nc2cc(CN3CCN(c4ccc(-c5cccnc5)cc4)CC3)cnc2N2CCCC[C@@H]12` [Compound 158, (S)-3-((4-(4-(pyridin-3-yl)phenyl)piperazin-1-yl)methyl)-7,8,9,10-tetrahydro-5H-dipyrido[1,2-a:3′,2′-e]pyrazin-6(6aH)-one], no less than 50.1 nM; with `Cc1ccc(-c2ccc(N3CCN(Cc4cnc5c(c4)NC(=O)[C@@H]4CCCCN54)CC3)cc2)s1` [Compound 159, (S)-3-((4-(4-(5-methylthiophen-2-yl)phenyl)piperazin-1-yl)methyl)-7,8,9,10-tetrahydro-5H-dipyrido[1,2-a:3′,2′-e]pyrazin-6(6aH)-one], no less than 50.1 nM.
At PARP, `O=C1Nc2cc(CN3CCN(c4ccc(-c5ccccc5CO)cc4)CC3)cnc2N2CCCC[C@@H]12` [Compound 160, (S)-3-((4-(2′-(hydroxymethyl)biphenyl-4-yl)piperazin-1-yl)methyl)-7,8,9,10-tetrahydro-5H-dipyrido[1,2-a:3′,2′-e]pyrazin-6(6aH)-one] gave an IC50 of no less than 50.1 nM.
On PARP, `Cc1cscc1-c1ccc(N2CCN(Cc3cnc4c(c3)NC(=O)[C@@H]3CCCCN43)CC2)cc1` [Compound 161, (S)-3-((4-(4-(4-methylthiophen-3-yl)phenyl)piperazin-1-yl)methyl)-7,8,9,10-tetrahydro-5H-dipyrido[1,2-a:3′,2′-e]pyrazin-6(6aH)-one] had an IC50 of no less than 50.1 nM.
Same read-out and setting: the figure for `Cc1ccsc1-c1ccc(N2CCN(Cc3cnc4c(c3)NC(=O)[C@@H]3CCCCN43)CC2)cc1` [Compound 162, (S)-3-((4-(4-(3-methylthiophen-2-yl)phenyl)piperazin-1-yl)methyl)-7,8,9,10-tetrahydro-5H-dipyrido[1,2-a:3′,2′-e]pyrazin-6(6aH)-one] is no less than 50.1 nM.
On to `O=C1CCC=C1c1ccc(N2CCN(Cc3cnc4c(c3)NC(=O)[C@@H]3CCCCN43)CC2)cc1` [Compound 163, (S)-3-((4-(4-(5-oxocyclopent-1-enyl)phenyl)piperazin-1-yl)methyl)-7,8,9,10-tetrahydro-5H-dipyrido[1,2-a:3′,2′-e]pyrazin-6(6aH)-one], for which the IC50 at PARP is no less than 50.1 nM.
Consider `Cc1ccc(-c2ccc(N3CCN(Cc4cnc5c(c4)NC(=O)[C@@H]4CCCCN54)CC3)cc2)cn1` [Compound 164, (S)-3-((4-(4-(6-methylpyridin-3-yl)phenyl)piperazin-1-yl)methyl)-7,8,9,10-tetrahydro-5H-dipyrido[1,2-a:3′,2′-e]pyrazin-6(6aH)-one], for which the IC50 on PARP is 15.8 to 39.8 nM.
Compound `Cn1cc(-c2ccc(N3CCN(Cc4cnc5c(c4)NC(=O)[C@@H]4CCCCN54)CC3)cc2)cn1` [Compound 165, (S)-3-((4-(4-(1-methyl-1H-pyrazol-4-yl)phenyl)piperazin-1-yl)methyl)-7,8,9,10-tetrahydro-5H-dipyrido[1,2-a:3′,2′-e]pyrazin-6(6aH)-one] had an IC50 against PARP of 15.8 to 39.8 nM.
As for `Cc1ccnc(-c2ccc(N3CCN(Cc4cnc5c(c4)NC(=O)[C@@H]4CCCCN54)CC3)cc2)c1` [Compound 166, (S)-3-((4-(4-(4-methylpyridin-2-yl)phenyl)piperazin-1-yl)methyl)-7,8,9,10-tetrahydro-5H-dipyrido[1,2-a:3′,2′-e]pyrazin-6(6aH)-one], the IC50 against PARP was 15.8 to 39.8 nM.
At PARP, `Cc1cc(-c2ccc(N3CCN(Cc4cnc5c(c4)NC(=O)[C@@H]4CCCCN54)CC3)cc2)ccn1` [Compound 167, (S)-3-((4-(4-(2-methylpyridin-4-yl)phenyl)piperazin-1-yl)methyl)-7,8,9,10-tetrahydro-5H-dipyrido[1,2-a:3′,2′-e]pyrazin-6(6aH)-one] gave an IC50 of 15.8 to 39.8 nM.
On the same count and under the same terms, the figure for `O=C1Nc2cc(CN3CCN(c4ccc(-c5cnccn5)cc4)CC3)cnc2N2CCCC[C@@H]12` [Compound 168, (S)-3-((4-(4-(pyrazin-2-yl)phenyl)piperazin-1-yl)methyl)-7,8,9,10-tetrahydro-5H-dipyrido[1,2-a:3′,2′-e]pyrazin-6(6aH)-one] is 15.8 to 39.8 nM; for `COc1ncccc1-c1ccc(N2CCN(Cc3cnc4c(c3)NC(=O)[C@@H]3CCCCN43)CC2)cc1` [Compound 169, (S)-3-((4-(4-(2-methoxypyridin-3-yl)phenyl)piperazin-1-yl)methyl)-7,8,9,10-tetrahydro-5H-dipyrido[1,2-a:3′,2′-e]pyrazin-6(6aH)-one] it is no less than 50.1 nM.
